In patent publication US20200108032A1, “USE OF ISOFERULIC ACID, ISOFERULIC ACID-CONTAINING TRADITIONAL CHINESE MEDICINE EXTRACT AND CIMICIFUGAE RHIZOMA” (BEIJING DITAN HOSPITAL, CAPITAL MEDICAL UNIVERSITY, priority 2017, published 2020):

How the values were obtained:
Assay type in all cases: in vivo, C57BL/6 mice
CIA arthritis mice = assay: Arthritis index of CIA arthritis mice; details: for arthritis index: MEAN ± SEM
Excerpt: Test materials: bovine type II collagen acetic acid solution and complete Freund's adjuvant were purchased from Chondrex company; isoferulic acid was purchased from Tianjin Yifang Technology Co., Ltd.
Animals: C57BL/6 mice, purchased from Beijing Huafukang Biotechnology Co., Ltd.
Grouping: 24 C57BL/6 mice, male, 18-20 g, after 1 day of adaptive breeding, the mice were randomly divided into 4 groups: normal control group and CIA model group, 5 mice in each group; Cimicifugae rhizoma group and isoferulic acid group, 7 mice in each group.
Model preparation and drug administration: Prepared a 2 mg/ml bovine type II collagen acetic acid solution, took 2 ml of the overnighted bovine type II collagen acetic acid solution, mixed thoroughly with 2 ml of complete Freund's adjuvant and emulsified (operation on ice), and prepared the bovine type II collagen emulsion having a final concentration of 1 mg/ml. Each mouse was injected intradermally with 0.1 ml of the emulsion. 21 days after the first immunization, mice were given a second immunization for 21 days, starting from day 0 of the second immunization, the CIA model group was given 250 μL of distilled water by gavage and the Cimicifugae rhizoma group was given 250 μL of the Cimicifugae rhizoma decoction obtained in Preparation Example 1. The crude drug dose was 2 g/kg; 250 μL of an aqueous solution of isoferulic acid was administered by gavage in the isoferulic acid group at a dose of 5 mg/kg, administered once every 3 days, and bred continuously for 21 days.
Animals were scored using the joint scoring method (grades 0-4), and the assessment was based on the degree of joint redness and swelling and joint swelling and deformation. 0 point: no redness and swelling; 1 point: redness but no swelling of the joint; 2 points: mild redness and swelling of the joint; 3 points: moderate redness and swelling of the joint; 4 points: severe redness and swelling of the joint accompanied by dysfunction of the joint. Each limb was scored separately, and the sum of the scores of each limb is the arthritis index of the mouse. The highest score is 16 points. The higher the score, the more severe the joint symptoms.

[1] = tested on: CD48-CD11b+ positive granulocytes; assay: Proportion of granulocytes in CIA arthritis mice (flow cytometry); details: CD48-CD11b+ granulocytes to white blood cells; 21 days after second immunization; MEAN ± SEM
Excerpt: Test materials and animals: CD48 PE and CD11b FITC antibodies were purchased from BD Pharmingen; RBC Lysis Buffer was purchased from Biolegend of the United States; other required reagents were the same as in Experimental Example 3.
Model preparation and drug administration: the administration dose of each treatment group was the same as that of Experimental Example 3. 21 days after the second immunization, the mice were anesthetized.
Animal: C57BL/6 mouse, purchased from Beijing Huafukang Biotechnology Co., Ltd.
Preparation of bone marrow single cell suspension: After anesthesia of C57BL/6 mice, the two pairs of femur and tibia of the mouse were separated, PBS was pipetted with a 2 mL syringe to flush the bone marrow cells into a flow tube, and pipetted repeatedly to obtain the bone marrow single cell suspension. The bone marrow was filtered into a flow tube with a 400-mesh strainer, discarded the supernatant after centrifugation, added 2 mL of RBC Lysis Buffer and lysed at room temperature for 15 min. Discarded the supernatant by centrifugation, harvested the bone marrow cells, resuspended by adding 1 mL of PBS, and repeatedly mixing by pipetting 100 μL into the flow tube for surface staining. […]

Body weight of CIA mice = details: day 21 of the second immunization; MEAN ± SEM
Excerpt: The test materials and animals were the same as those in Experimental Example 3.
Model preparation and administration: same as in Experimental Example 3. On day 21 of the second immunization, the mice were weighed.

[2] = tested on: mouse model of ConA hepatitis; assay: Liver pathological damage (HE staining) in mouse model of ConA hepatitis; details: liver 10 hours after ConA 15 mg/kg; compared with the ConA group
Experimental: (§1) The test materials and animals were the same as those in Experimental Example 1.
(§2) Grouping: C57BL/6 mice, male, 18-20 g, after 1 day of adaptive breeding, the mice were randomly divided into 6 groups: normal control group; ConA model group, Cimicifugae rhizoma compatibility group, Cimicifugae rhizoma group, Cimicifugae rhizoma total phenolic acid group and isoferulic acid group.
(§3) Model preparation and drug administration: except the normal control group, mice were injected intravenously once at a dose of ConA 15 mg/kg. The dosages of each drug group were the same as those of Experimental Example 1.
(2) The effects of each drug group on liver pathological damage in ConA mice were examined. Three mice in each group were sacrificed under anesthesia 10 hours after ConA injection. The left lobe of the liver was taken, cut into a size of about 5 mm^3, and placed in 10% formalin solution, and dehydrated, transparently impregnated with wax, embedded, sliced, and spread, and observed after staining;

[3] = tested on: serum cytokines TNF-α, IL-12, IL-6, MCP-1, IFN-γ; assay: Serum cytokine secretion in mouse model of ConA hepatitis; details: MEAN ± SEM
Experimental: as §1, §2, §3
(3) The effects of drugs in each treatment group on serum cytokine secretion in ConA mice were examined. Six mice from each group. Peripheral blood was collected 3 hours after ConA injection and serum was separated to detect the secretion of cytokines TNF-α, IL-12, IL-6 and MCP-1. Serum was separated 10 hours after ConA injection to detect cells factor IFN-γ secretion.

[4] = serum 3 hours after ConA injection

COc1ccc(C=CC(=O)O)cc1O [isoferulic acid, 3-hydroxy-4-methoxycinnamic acid]
arthritis index (CIA arthritis mice; Day 0 after second immunization, gavage once every 3 days (Cimicifugae rhizoma 2 g/kg, isoferulic acid 5 mg/kg), max 16 points): 0 ± 0
arthritis index (CIA arthritis mice; Day 3 after second immunization): 0.43 ± 0.28
arthritis index (CIA arthritis mice; Day 6 after second immunization): 1.0 ± 0.61
arthritis index (CIA arthritis mice; Day 9 after second immunization): 3.14 ± 0.77
arthritis index (CIA arthritis mice; Day 12 after second immunization): 5.14 ± 0.98
arthritis index (CIA arthritis mice; Day 15 after second immunization, CIA group 8.43): 4.43
arthritis index (CIA arthritis mice; Day 15 after second immunization, CIA group 8.43, listed as Isoferulic acid): 5.71 ± 0.83
swelling of paw joints (FIG. 3) (CIA arthritis mice; pictures of front and hind paw joints, versus CIA arthritis mice): significantly reduced
proportion of granulocytes, Bone marrow [1]: 44.6 ± 5.1 %
proportion of granulocytes, spleen [1]: 9 ± 4.4 %
Body weight (Body weight of CIA mice): 21.6 ± 0.4 g
liver pathological damage (HE staining) [2]: reduced hepatocyte degeneration and necrosis
IL-6 [3, 4]: 1422 ± 214.2 pg/mL
IL-12 [3, 4]: 183.7 ± 33.4 pg/mL
MCP-1 [3, 4]: 5708 ± 145.5 pg/mL
TNF-α [3, 4]: 260.4 ± 119.5 pg/mL
IFN-γ ([3]; serum 10 hours after ConA injection): 574 ± 70.4 pg/mL
